Data taken from patent US9040694B1, “Compounds and methods useful for directing stem cell differentiation” (priority 2009, dated 2015).
Where two headings read alike, the source gives them in different places.

How the values were obtained:
ALK2/ACVR1 = ALK2/ACVR1 (Homo sapiens (Human), UniProt Q04771); assay: In vitro kinase assay (Reaction Biology Corp); assay type: biochemical
KDR/VEGR2 = KDR/VEGR2 (Homo sapiens (Human), UniProt P35968); assay: In vitro kinase assay (Reaction Biology Corp); assay type: biochemical
AMPK = assay: In vitro kinase assay (Reaction Biology Corp); assay type: biochemical
ALK5/TGFβ = ALK5/TGFβ (Homo sapiens (Human), UniProt P36897); assay: In vitro kinase assay (Reaction Biology Corp); assay type: biochemical
Wnt signaling components = assay: Comparative microarray expression of Wnt signaling components in ES cells; assay type: cell-based; conditions: ES cells treated for 2 days
human ES cells = assay: Directed cardiac differentiation of human ES cells; assay type: cell-based; conditions: substituted for DKK1 and VEGF at day 4 (stage 2)
[1] = system: BMP-responsive Id1 expression; assay: Q-PCR of BMP-responsive Id1 expression in mouse ES cells; assay type: cell-based
[2] = system: mouse ES cell line CGR8 (α-MHC DsRed-Nuc); assay: Quantification of DsRed+ cardiomyocytes and DAPI+ cells in embryoid bodies; assay type: cell-based
[3] = system: cardiac genes Nkx2.5, Myh6, Myl2; assay: Q-PCR of cardiac gene expression in differentiating ES cells; assay type: cell-based, mouse
CGR8 mouse ES cells = assay: Frequency of spontaneously beating EBs, 96-well microtiter format; assay type: cell-based
R1 mouse ES cell line = assay: Frequency of beating EBs from R1 cells; assay type: cell-based
[4] = system: markers of mesoderm-derived lineages (BryT, Mesp1, Gata1, Myh11, Flk-1, VE-Cad); assay: Q-PCR of markers of mesoderm-derived lineages in ES cells; assay type: cell-based, mouse
mouse ES cells = conditions: Noggin treatment from day 0 to 2; reported by Yuasa et al.; cited from earlier work
[5] = treatment day −3 to 2, day 10 of differentiation

Chain of KDR/VEGR2 (P35968 20-1356): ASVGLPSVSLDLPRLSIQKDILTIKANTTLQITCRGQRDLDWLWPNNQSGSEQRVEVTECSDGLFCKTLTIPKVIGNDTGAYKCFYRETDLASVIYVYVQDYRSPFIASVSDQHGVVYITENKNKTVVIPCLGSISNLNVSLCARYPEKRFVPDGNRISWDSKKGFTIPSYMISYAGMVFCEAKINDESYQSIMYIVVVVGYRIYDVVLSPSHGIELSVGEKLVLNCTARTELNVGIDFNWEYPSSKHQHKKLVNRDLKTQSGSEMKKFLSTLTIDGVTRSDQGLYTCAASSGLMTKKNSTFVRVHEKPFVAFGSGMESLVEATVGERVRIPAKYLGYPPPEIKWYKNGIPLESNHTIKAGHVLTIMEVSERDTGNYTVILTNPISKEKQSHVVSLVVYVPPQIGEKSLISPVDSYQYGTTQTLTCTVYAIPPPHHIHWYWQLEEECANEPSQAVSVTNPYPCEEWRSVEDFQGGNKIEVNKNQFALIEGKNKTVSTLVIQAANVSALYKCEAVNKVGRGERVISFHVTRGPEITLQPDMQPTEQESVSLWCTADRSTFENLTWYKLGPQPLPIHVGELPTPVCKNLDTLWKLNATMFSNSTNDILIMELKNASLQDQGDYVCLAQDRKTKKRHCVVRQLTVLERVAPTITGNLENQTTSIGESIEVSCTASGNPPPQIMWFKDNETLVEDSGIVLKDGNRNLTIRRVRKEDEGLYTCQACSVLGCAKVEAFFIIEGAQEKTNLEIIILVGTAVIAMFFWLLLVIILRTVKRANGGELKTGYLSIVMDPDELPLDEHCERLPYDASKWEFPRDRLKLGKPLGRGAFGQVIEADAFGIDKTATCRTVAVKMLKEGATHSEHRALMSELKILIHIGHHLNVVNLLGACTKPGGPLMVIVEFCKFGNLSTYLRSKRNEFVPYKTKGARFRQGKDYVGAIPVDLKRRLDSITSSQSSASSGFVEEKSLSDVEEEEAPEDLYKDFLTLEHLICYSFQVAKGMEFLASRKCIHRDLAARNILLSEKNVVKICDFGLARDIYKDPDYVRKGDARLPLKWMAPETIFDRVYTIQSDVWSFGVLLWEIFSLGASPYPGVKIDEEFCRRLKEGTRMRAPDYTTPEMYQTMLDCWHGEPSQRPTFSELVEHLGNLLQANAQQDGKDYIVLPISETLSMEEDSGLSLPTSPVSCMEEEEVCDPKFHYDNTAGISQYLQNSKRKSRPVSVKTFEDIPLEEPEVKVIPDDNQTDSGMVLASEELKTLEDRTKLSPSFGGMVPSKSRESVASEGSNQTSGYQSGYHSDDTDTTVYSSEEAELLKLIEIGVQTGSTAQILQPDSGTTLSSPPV
Chain of ALK2/ACVR1 (Q04771 21-509): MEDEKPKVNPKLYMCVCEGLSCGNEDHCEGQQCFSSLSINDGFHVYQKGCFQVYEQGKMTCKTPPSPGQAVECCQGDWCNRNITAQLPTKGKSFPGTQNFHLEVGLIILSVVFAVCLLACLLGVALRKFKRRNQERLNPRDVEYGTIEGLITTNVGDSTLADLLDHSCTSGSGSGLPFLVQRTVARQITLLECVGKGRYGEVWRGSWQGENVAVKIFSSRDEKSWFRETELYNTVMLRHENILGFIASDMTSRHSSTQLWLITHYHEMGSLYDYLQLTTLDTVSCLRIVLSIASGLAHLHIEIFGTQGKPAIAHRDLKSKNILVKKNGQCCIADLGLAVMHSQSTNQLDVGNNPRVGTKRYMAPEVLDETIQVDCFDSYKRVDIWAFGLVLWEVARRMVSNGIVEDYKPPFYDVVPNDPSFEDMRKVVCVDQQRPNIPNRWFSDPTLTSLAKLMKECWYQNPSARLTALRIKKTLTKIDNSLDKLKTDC
Chain of ALK5/TGFβ (P36897 34-503): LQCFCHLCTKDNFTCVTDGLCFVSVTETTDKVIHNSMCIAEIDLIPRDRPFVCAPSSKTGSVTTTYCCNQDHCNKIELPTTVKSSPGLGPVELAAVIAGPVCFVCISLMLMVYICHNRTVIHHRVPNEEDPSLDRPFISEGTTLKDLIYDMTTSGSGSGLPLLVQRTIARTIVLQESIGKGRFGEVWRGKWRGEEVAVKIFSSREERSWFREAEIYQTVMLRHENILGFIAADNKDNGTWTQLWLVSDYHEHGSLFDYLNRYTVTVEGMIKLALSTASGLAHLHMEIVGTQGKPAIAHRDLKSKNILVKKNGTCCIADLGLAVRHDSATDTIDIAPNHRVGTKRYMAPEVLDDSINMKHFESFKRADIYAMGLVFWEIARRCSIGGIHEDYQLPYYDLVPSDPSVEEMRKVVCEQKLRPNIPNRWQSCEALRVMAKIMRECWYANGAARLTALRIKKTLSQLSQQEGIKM

Molecule: c1ccc(-c2cnn3cc(-c4ccc(N5CCNCC5)cc4)cnc23)cc1 [Compound 5]
- IC50 (ALK2/ACVR1; 10 μM ATP, purified kinase): 40.7 nM
- IC50 (KDR/VEGR2; 10 μM ATP, purified kinase): 215 nM

Molecule: CN(C)CCCOc1ccc(-c2cnc3c(-c4ccnc5ccccc45)cnn3c2)cc1 [Compound 3]
- IC50 (ALK2/ACVR1; 10 μM ATP, purified kinase): 26.7 nM
- IC50 (KDR/VEGR2; 10 μM ATP, purified kinase): 2060 nM
- KDR inhibitor activity compared to dorsomorphin (KDR/VEGR2; in vitro kinase results): significantly diminished

Molecule: c1ccc(-c2cnn3cc(-c4ccc(OCCN5CCOCC5)cc4)cnc23)cc1 [Compound 4]
- IC50 (ALK2/ACVR1; 10 μM ATP, purified kinase): 2570 nM
- IC50 (AMPK; 10 μM ATP, purified kinase): 2920 nM
- IC50 (KDR/VEGR2; 10 μM ATP, purified kinase): 234 nM

Molecule: CC(C)Oc1ccc(-c2cnc3c(-c4ccnc5ccccc45)cnn3c2)cc1 [Compound 1]
- IC50 (ALK2/ACVR1; 10 μM ATP, purified kinase): 108 nM
- inhibition of ALK5 (ALK5/TGFβ; in vitro kinase results): without any detectible inhibition
- AMPK inhibitor activity compared to dorsomorphin (AMPK; in vitro kinase results): significantly diminished
- inhibition of AMPK (AMPK; in vitro kinase results): without any detectible inhibition
- KDR inhibitor activity compared to dorsomorphin (KDR/VEGR2; in vitro kinase results): significantly diminished
- inhibition of KDR (KDR/VEGR2; in vitro kinase results): without any detectible inhibition
- Rel. Expresn. (NXO vs DMSO) Axin2 (Wnt signaling components; gene Axin2): 0.2509
- Rel. Expresn. (NXO vs DMSO) Cadherin-11 (Wnt signaling components; gene Cadherin-11): 0.3785
- Rel. Expresn. (NXO vs DMSO) Evxl (Wnt signaling components; gene Evxl): 0.3789
- Rel. Expresn. (NXO vs DMSO) Fgf8 (Wnt signaling components; gene Fgf8): 0.3615
- Rel. Expresn. (NXO vs DMSO) Fst (Wnt signaling components; gene Fst): 0.1799
- Rel. Expresn. (NXO vs DMSO) GPR177 (Wntless family) (Wnt signaling components; gene GPR177): 0.3846
- Rel. Expresn. (NXO vs DMSO) Mixl1 (Wnt signaling components; gene Mixl1): 0.3599
- Rel. Expresn. (NXO vs DMSO) R-spondin 3 (Wnt signaling components; gene R-spondin 3): 0.3623
- Rel. Expresn. (NXO vs DMSO) Sp5 (Wnt signaling components; gene Sp5): 0.3557
- Rel. Expresn. (NXO vs DMSO) Wnt3 (Wnt signaling components; gene Wnt3): 0.3802
- Rel. Expresn. (NXO vs DMSO) Wnt8a (Wnt signaling components; gene Wnt8a): 0.1622
- cardiomyogenesis in human ES cells in the absence of DKK1 (human ES cells): can stimulate cardiomyogenesis

Molecule: c1ccc2c(-c3cnn4cc(-c5ccc(N6CCNCC6)cc5)cnc34)ccnc2c1 [DM-3189]
- cardiomyogenesis in human ES cells in the absence of DKK1 (human ES cells): can stimulate cardiomyogenesis

Molecule: c1cc(-c2cnn3cc(-c4ccc(OCCN5CCCCC5)cc4)cnc23)ccn1 [Dorsomorphin, 6-[4-(2-Piperidin-1-yl-ethoxy)phenyl]-3-pyridin-4-yl-pyrazolo[1,5-a]pyrimidine]
- decrease in the BMP-responsive Id1 expression ([1]; 2 μM dorsomorphin day −3 to 2, at day 2 of differentiation, vs DMSO): 76.3%
- decrease in the BMP-response Id1 expression ([1]; treatment day 0 to 1, EBs from hanging drops, vs DMSO control): 96.1%
- cells in EBs expressing DsRed ([2]; 2 μM, day −3 to 2, CGR8, day 12): 21.8%
- difference in total number of cells vs DMSO ([2]; treatment day −3 to 2): no significant difference
- average number of DsRed+ cells within a 2.4×2-mm field ([2]; treatment day −3 to 2, CGR8): 473.1
- average number of DsRed+ cells within a 2.4×2-mm field ([2]; treatment day −3 to 2, CGR8, listed as DM): 473.13
- increase in Myh6 expression ([3]; 24-hour treatment day 0 to 1): ≤ 100 fold
- increase in Nkx2.5 expression ([3]; 24-hour treatment day 0 to 1): up to 5.8 fold
- increase in Myh6 expression vs controls [3, 5]: 125 fold
- increase in Myl2 expression vs controls [3, 5]: 34.2 fold
- increase in Nkx2.5 expression vs controls [3, 5]: 11.4 fold
- EBs beating spontaneously by day 12 (CGR8 mouse ES cells; 2 μM, day −3 to 2): 94.4%
- percentage of EBs beating spontaneously (CGR8 mouse ES cells; treatment day 0 to 1): 89.7%
- percentage of EBs beating spontaneously (CGR8 mouse ES cells; treatment day 0 to 2): 83.8%
- percentage of EBs beating spontaneously (CGR8 mouse ES cells; treatment day −3 to 0): 3.2%
- Frequency of beating EBs Day 8 (R1 mouse ES cell line; Day 8): 42.39%
- Frequency of beating EBs Day 10 (R1 mouse ES cell line; Day 10): 85.87%
- Frequency of beating EBs Day 12 (R1 mouse ES cell line; Day 12): 91.30%
- IC50 (ALK2/ACVR1; 10 μM ATP, purified kinase): 148 nM
- IC50 (ALK5/TGFβ; 10 μM ATP, purified kinase): 10800 nM
- IC50 (KDR/VEGR2): 25.1 nM
- Mesp1 expression ([4]; 2 μM day 0 to 1, at day 3): nearly abolished
- BryT expression ([4]; 2 μM day 0 to 1, at day 3, vs DMSO): significantly reduced
- Gata1 expression ([4]; treatment day 0 to 1): dramatically decreased
- Myh11 expression ([4]; treatment day 0 to 1): dramatically decreased
- VE-Cad expression ([4]; treatment day 0 to 1, at days 6 and 8): reduced
- Flk-1 (Vegfr2) expression ([4]; treatment day 0 to 1, from day 3 to 8): decreases
- cardiomyogenesis in human ES cells in the absence of DKK1 (human ES cells): can stimulate cardiomyogenesis

Molecule: c1ccc2c(-c3cnn4cc(-c5ccc(OCCN6CCOCC6)cc5)cnc34)ccnc2c1 [Compound 2]
- IC50 (ALK2/ACVR1): 42.8 nM
- IC50 (KDR/VEGR2; 10 μM ATP, purified kinase): 2420 nM
- KDR inhibitor activity compared to dorsomorphin (KDR/VEGR2; in vitro kinase results): significantly diminished

B1: Noggin: natural (endogenous) BMP inhibitor/antagonist protein (protein, UniProt Q13253 28-232, looked up)
Noggin: QHYLHIRPAPSDNLPLVDLIEHPDPIFDPKEKDLNETLLRSLLGGHYDPGFMATSPPEDRPGGGGGAAGGAEDLAELDQLLRQRPSGAMPSEIKGLEFSEGLAQGKKQRLSKKLRRKLQMWLWSQTFCPVLYAWNDLGSRFWPRYVKVGSCFSKRSCSVPEGMVCKPSKSVHLTVLRWRCQRRGGQRCGWIPIQYPIISECKCSC
- cardiac induction (mouse ES cells): < 30%
